This note sets out measurements from patent US12122815B2, “GIP receptor agonist peptide compounds and uses thereof” (TAKEDA PHARMACEUTICAL COMPANY LIMITED, priority 2018, dated 2024).

Test [1] addresses T1, human GIPR (Homo sapiens, UniProt P48546).
T1 construct: FLAG (N)
T1 sequence (P48546 22-466): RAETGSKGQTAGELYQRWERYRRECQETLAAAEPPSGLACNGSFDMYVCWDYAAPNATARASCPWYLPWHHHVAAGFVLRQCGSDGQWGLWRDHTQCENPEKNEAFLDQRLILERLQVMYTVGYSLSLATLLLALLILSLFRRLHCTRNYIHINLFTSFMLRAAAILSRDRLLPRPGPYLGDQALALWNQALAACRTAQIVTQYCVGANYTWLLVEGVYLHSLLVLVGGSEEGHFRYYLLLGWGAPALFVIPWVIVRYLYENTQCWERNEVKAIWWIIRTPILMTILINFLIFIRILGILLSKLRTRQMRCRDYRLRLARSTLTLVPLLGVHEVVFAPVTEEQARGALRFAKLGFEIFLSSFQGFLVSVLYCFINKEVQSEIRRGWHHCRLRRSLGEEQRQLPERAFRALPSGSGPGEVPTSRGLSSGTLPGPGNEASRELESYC
The test is described as follows: Agonist activity on human GIPR, CRE-luciferase reporter assay with increase in intracellular cAMP as indicator (hGIPR/CRE-LUC/CHO-K1 cell). The test is classed as cell-based. From the text:
(§1) Evaluation of Agonist Activity on Human GIPR and Human GLP-1R with Increase in Intracellular cAMP Concentration as Indicator
(§2) A) Evaluation of Agonist Activity on Human GIPR and Human GLP-IR with Increase in Intracellular cAMP Concentration as Indicator
(1) Construction of Expression Plasmid of Human GIPR Gene. The Human GIPR Gene Having an Identical Sequence to Genebank Accession No. U39231 was Cloned into a pMSRα-Neo Vector to Prepare hGIPR/pMSRα-Neo.
(2) Construction of Reporter Plasmid Expressing Cell Luciferase Reporter Gene with a cAMP-Responsive Sequence Located Upstream was Transferred to a CHO-K1 Cell to Construct a CRE-LUC/CHO-K1 Cell.
(§3) (3) Construction of Reporter Plasmid
(§4) Four Copies of a cAMP responsive sequence and a Zeocin resistance gene were transferred to pGL3(R2.2)-Basic Vector (Promega) to construct a Cre-luc(Zeo) reporter plasmid.
(4) Transfer of Human GIPR Gene to CRE-LUC/CHO-K1 Cell and Obtaining of Expressing Cell the Plasmid hGIPR/pMSRα-Neo Obtained in (1) was Transferred to the CRELUC.
CHO-K1 cell obtained in (2) to obtain a transformant. Subsequently, the cell line inducing the luciferase expression, hGIPR/CRE-LUC/CHO-K1 cell, was selected from the obtained transformant by adding GIP.
25 μL each of the hGIPR/CRE-LUC/CHO-K1 cell was inoculated in a 384-well white plate (Corning) in such a way as to provide 5×10^3 cells/well and cultured in a HamF12 medium containing 10% fetal bovine serum, 100 U/mL penicillin, and 100 μg/mL streptomycin in a CO2 incubator at 37° C. overnight. 5 μL of a medium containing a test compound was added to the cells and incubated for 4 hours at the indicated concentration in a CO2 incubator at 37° C. […] 20 Minutes later, luciferase activity was measured using a plate reader Envision (PerkinElmer). The GIPR agonist activity was calculated with increase in intracellular cAMP concentration as the indicator when the luciferase activity in the presence of 10 nM of GIP was 100% and the luciferase activity in the case of adding DMSO instead of the test compound was 0%.

Test [2] deals with T2, human GLP-1R (Homo sapiens, UniProt P43220).
T2 construct: FLAG (N)
T2 sequence (P43220 24-463): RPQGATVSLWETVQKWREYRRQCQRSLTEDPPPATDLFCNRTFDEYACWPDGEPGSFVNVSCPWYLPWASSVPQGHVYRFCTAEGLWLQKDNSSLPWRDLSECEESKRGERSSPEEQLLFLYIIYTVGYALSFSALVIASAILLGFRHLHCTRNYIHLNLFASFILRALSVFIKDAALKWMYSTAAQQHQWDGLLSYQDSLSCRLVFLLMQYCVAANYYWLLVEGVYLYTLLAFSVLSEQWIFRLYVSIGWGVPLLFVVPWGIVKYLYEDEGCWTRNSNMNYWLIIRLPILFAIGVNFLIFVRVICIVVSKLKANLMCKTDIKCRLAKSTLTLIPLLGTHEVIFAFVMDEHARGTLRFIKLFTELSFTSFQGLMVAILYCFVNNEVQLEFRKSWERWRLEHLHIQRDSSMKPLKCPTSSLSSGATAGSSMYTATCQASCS
Briefly: Agonist activity on human GLP-1R, CRE-luciferase reporter assay with increase in intracellular cAMP as indicator (hGLP-1R/CRE-luc/CHO-K1 cell). The format is cell-based.
Excerpt: as §1, §2, §3, §4
(5) Construction of Expression Plasmid of Human GLP-1R Gene
The human GLP-IR gene having an identical sequence to Genebank Accession No. NM_002062 was cloned into a pIRESneo3 vector to prepare hGLP-1/pIRESneo3.
(6) Transfer of Human GLP-1R Gene and Reporter Plasmid to CHO-K1 Cell and Obtaining of Expressing Cell
The Cre-luc (Zeo) obtained in (3) and the plasmid hGLP-1/pIRESneo3 obtained in (5) were transferred to the CHO-K1 cell to obtain a transformant. Subsequently, the cell line inducing the luciferase expression, hGLP-1R/CRE-luc/CHO-K1 cell, was selected from the obtained transformant by adding GLP-1.
25 μL each of the hGIPR/CRE-LUC/CHO-K1 cell was inoculated in a 384-well white plate (Corning) in such a way as to provide 5×10^3 cells/well and cultured in a HamF12 medium containing 10% fetal bovine serum, 100 U/mL penicillin, and 100 μg/mL streptomycin in a CO2 incubator at 37° C. overnight. 5 μL of a medium containing a test compound was added to the cells and incubated for 4 hours at the indicated concentration in a CO2 incubator at 37° C. Steady-Glo (Promega) was added in amounts of 30 μL and shaken under light shielding. 20 Minutes later, luciferase activity was measured using a plate reader Envision (PerkinElmer). The GIPR agonist activity was calculated with increase in intracellular cAMP concentration as the indicator when the luciferase activity in the presence of 10 nM of GIP was 100% and the luciferase activity in the case of adding DMSO instead of the test compound was 0%.
The GLP-IR agonist activity was assayed in the same manner as above using the hGLP-1R/CRE-luc/CHO-K1 cell.

As for `CCCCCCCCCCCCCCCCCCCC(=O)NCC(=O)NCC(=O)NCC(=O)NCC(=O)NCCCC[C@H](NC(=O)[C@H](CO)NC(=O)[C@@H]1CCCN1C(=O)[C@@H]1CCCN1C(=O)[C@@H]1CCCN1C(=O)[C@H](C)NC(=O)CNC(=O)[C@H](CO)NC(=O)[C@H](CO)NC(=O)[C@@H]1CCCN1C(=O)CNC(=O)CNC(=O)[C@H](CCCCN)NC(=O)[C@H](CC(C)C)NC(=O)[C@H](CC(C)C)NC(=O)[C@H](Cc1c[nH]c2ccccc12)NC(=O)[C@H](CCCCN)NC(=O)[C@@H](NC(=O)[C@H](Cc1ccccc1)NC(=O)[C@H](CCC(=O)O)NC(=O)C(C)(C)NC(=O)[C@H](CCC(N)=O)NC(=O)[C@H](C)NC(=O)[C@H](CCC(N)=O)NC(=O)[C@H](CCCCN)NC(=O)[C@H](CC(=O)O)NC(=O)[C@H](CC(C)C)NC(=O)[C@H](CC(C)C)NC(=O)[C@@H](NC(=O)[C@H](CO)NC(=O)[C@H](Cc1ccc(O)cc1)NC(=O)[C@H](CC(=O)O)NC(=O)[C@H](CO)NC(=O)[C@H](CCCCN)NC(=O)[C@@H](NC(=O)[C@@H](NC(=O)CNC(=O)[C@H](CCC(=O)O)NC(=O)C(C)(C)NC(=O)[C@@H](N)Cc1ccc(O)cc1)[C@@H](C)O)C(C)C)[C@@H](C)CC)C(C)C)C(N)=O` [Compound 8], the EC50 was 0.04 nM in test [1] and 180 nM in test [2].
Consider `CCCCCCCCCCCCCCCC(=O)NCCCC[C@H](NC(=O)[C@H](CO)NC(=O)[C@@H]1CCCN1C(=O)[C@@H]1CCCN1C(=O)[C@@H]1CCCN1C(=O)[C@H](C)NC(=O)CNC(=O)[C@H](CO)NC(=O)[C@H](CO)NC(=O)[C@@H]1CCCN1C(=O)CNC(=O)CNC(=O)[C@H](CCCCN)NC(=O)[C@H](CC(C)C)NC(=O)[C@H](CC(C)C)NC(=O)[C@H](Cc1c[nH]c2ccccc12)NC(=O)[C@H](CCCCN)NC(=O)[C@@H](NC(=O)[C@H](Cc1ccccc1)NC(=O)[C@H](CCC(=O)O)NC(=O)C(C)(C)NC(=O)[C@H](CCC(N)=O)NC(=O)[C@H](C)NC(=O)[C@H](CCC(N)=O)NC(=O)[C@H](CCCCN)NC(=O)[C@H](CC(=O)O)NC(=O)[C@H](CC(C)C)NC(=O)[C@H](CC(C)C)NC(=O)[C@@H](NC(=O)[C@H](CO)NC(=O)[C@H](Cc1ccc(O)cc1)NC(=O)[C@H](CC(=O)O)NC(=O)[C@H](CO)NC(=O)[C@H](CCCCN)NC(=O)[C@@H](NC(=O)[C@@H](NC(=O)CNC(=O)[C@H](CCC(=O)O)NC(=O)C(C)(C)NC(=O)[C@@H](N)Cc1ccc(O)cc1)[C@@H](C)O)C(C)C)[C@@H](C)CC)C(C)C)C(N)=O` [Compound 10], for which the results for the EC50 in test [1] and in test [2] were 0.03 nM and 210 nM, respectively.
For `CC[C@H](C)[C@H](NC(=O)[C@H](CO)NC(=O)[C@H](Cc1ccc(O)cc1)NC(=O)[C@H](CC(=O)O)NC(=O)[C@H](CO)NC(=O)[C@H](CCCCN)NC(=O)[C@@H](NC(=O)[C@@H](NC(=O)CNC(=O)[C@H](CCC(=O)O)NC(=O)C(C)(C)NC(=O)[C@@H](N)Cc1ccc(O)cc1)[C@@H](C)O)C(C)C)C(=O)N[C@@H](CC(C)C)C(=O)N[C@@H](CC(C)C)C(=O)N[C@@H](CC(=O)O)C(=O)N[C@@H](CCCCN)C(=O)N[C@@H](CCC(N)=O)C(=O)N[C@@H](C)C(=O)N[C@@H](CCC(N)=O)C(=O)NC(C)(C)C(=O)N[C@@H](CCC(=O)O)C(=O)N[C@@H](Cc1ccccc1)C(=O)N[C@H](C(=O)N[C@@H](CCCCN)C(=O)N[C@@H](Cc1c[nH]c2ccccc12)C(=O)N[C@@H](CC(C)C)C(=O)N[C@@H](CC(C)C)C(=O)N[C@@H](CCCCN)C(=O)NCC(=O)NCC(=O)N1CCC[C@H]1C(=O)N[C@@H](CO)C(=O)N[C@@H](CO)C(=O)NCC(=O)N[C@@H](C)C(=O)N1CCC[C@H]1C(=O)N1CCC[C@H]1C(=O)N1CCC[C@H]1C(=O)N[C@@H](CO)C(=O)N[C@@H](CCCCNC(=O)CCCCCCCCCCCCCCC(=O)O)C(N)=O)C(C)C` [Compound 11] the same measures were 0.1 nM and 180 nM.
`CCCCCCCCCCCCCCCC(=O)NCCCC[C@H](NC(=O)[C@H](CO)NC(=O)[C@@H]1CCCN1C(=O)[C@@H]1CCCN1C(=O)[C@@H]1CCCN1C(=O)[C@H](C)NC(=O)CNC(=O)[C@H](CO)NC(=O)[C@H](CO)NC(=O)[C@@H]1CCCN1C(=O)[C@H](CCCCN)NC(=O)[C@H](CCC(N)=O)NC(=O)[C@H](C)NC(=O)[C@H](CC(C)C)NC(=O)[C@H](CC(C)C)NC(=O)[C@H](Cc1c[nH]c2ccccc12)NC(=O)[C@H](CC(N)=O)NC(=O)[C@@H](NC(=O)[C@H](Cc1ccccc1)NC(=O)[C@H](CC(=O)O)NC(=O)[C@H](CCC(N)=O)NC(=O)[C@H](CCC(N)=O)NC(=O)[C@H](Cc1c[nH]cn1)NC(=O)[C@@H](NC(=O)[C@H](CCCCN)NC(=O)[C@H](CC(=O)O)NC(=O)[C@H](CCSC)NC(=O)[C@H](C)NC(=O)[C@@H](NC(=O)[C@H](CO)NC(=O)[C@H](Cc1ccc(O)cc1)NC(=O)[C@H](CC(=O)O)NC(=O)[C@H](CO)NC(=O)[C@@H](NC(=O)[C@H](Cc1ccccc1)NC(=O)[C@@H](NC(=O)CNC(=O)[C@H](CCC(=O)O)NC(=O)[C@H](C)NC(=O)[C@@H](N)Cc1ccc(O)cc1)[C@@H](C)O)[C@@H](C)CC)[C@@H](C)CC)[C@@H](C)CC)C(C)C)C(N)=O` [Compound 12]: the EC50 in test [2] came out at 86 nM.
